Measurements from BindingDB's records for doi:10.1021/jm00382a015 (1985).

Target: Adenosylhomocysteinase (Bos taurus)
Test: Binding affinity against S-adenosyl-homocysteine hydrolase

Nc1ncnc2c1nnn2C1CC(CO)C(O)C1O (configuration not stated) [3-(7-amino-3H-[1,2,3]triazolo[4,5-d]pyrimidin-3-yl)-5-hydroxymethyl-1,2-cyclopentanediol]
Ki: 22 µM

Nc1nccc2c1ncn2[C@@H]1C[C@H](CO)[C@@H](O)[C@H]1O [3-DEAZAARISTEROMYCIN A]
Ki: 0.004 µM
